Patent publication US10604554B2, “Double-acylated GLP-1 derivatives” (Novo Nordisk A/S, priority 2012, dated 2020)
Where two headings read alike, the source gives them in different places. Numbered stars: 1 amine (or outer) side, 2 acyl side, 3 side chain; on linkers, the order of the positions; unused ones are H or OH. Square brackets hold non-standard residues; d marks the D form. Side chains are listed from the residue outwards. Peptide text beside a SMILES is read from it. * marks the point of attachment. Decanoyl(10-(4-HOOC-PhO)) = O=C(O)c1ccc(OCCCCCCCCCC(=O)*)cc1; γGlu = O=C(O)[C@H](CCC(=O)[*:2])N[*:1]; εLys = N[C@@H](CCCCN[*:1])C(=O)[*:2]; AEEA = NCCOCCOCC(=O)O; Aib = CC(C)(N)C(=O)O

What was measured:
[1] = biological target: T1, human GLP-1 receptor (Homo sapiens, UniProt P43220); test: GLP-1 receptor binding (SPA, displacement of 125I-GLP-1)
T1 construct: expressed in transfected cells; host or cells: BHK cells, clone FCW467-12A/KZ10-1 (parent line BHKTS13), further transfected with CRE luciferase
How it was run: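 Tracer [125I]-GLP-1(7-36)NH2 at 0.06 nM final competed on hamster stably transfected cell membranes captured by WGA SPA beads; 120 min, 30 °C, scintillation count.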

[2] = biological target: T1, human GLP-1 receptor; test: In vitro potency (CRE luciferase; whole cells); assay type: cell-based; design: EC50/pM (ratio 1% HSA/0% HSA): unit not given here; conditions: for EC50: BHK cells; for EC50/pM (ratio 1% HSA/0% HSA): ratio of EC50 at 1% HSA to EC50 at 0% HSA
How it was run: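 Reporter: CRE-luciferase in BHK cells stably expressing human GLP-1R, 5×10^3 cells/well; compounds tested in buffer containing 0% or 1% HSA.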

[3] = Receptor binding affinity IC50 (high HSA), 2.0% HSA (high albumin)
[4] = Receptor binding affinity IC50 (low HSA), 0.001% HSA (low albumin)
[5] = In vitro potency (CRE luciferase) EC50 (0% HSA), 0% HSA
[6] = In vitro potency (CRE luciferase) EC50 (1% HSA), 1% HSA

T1 sequence (P43220 24-463): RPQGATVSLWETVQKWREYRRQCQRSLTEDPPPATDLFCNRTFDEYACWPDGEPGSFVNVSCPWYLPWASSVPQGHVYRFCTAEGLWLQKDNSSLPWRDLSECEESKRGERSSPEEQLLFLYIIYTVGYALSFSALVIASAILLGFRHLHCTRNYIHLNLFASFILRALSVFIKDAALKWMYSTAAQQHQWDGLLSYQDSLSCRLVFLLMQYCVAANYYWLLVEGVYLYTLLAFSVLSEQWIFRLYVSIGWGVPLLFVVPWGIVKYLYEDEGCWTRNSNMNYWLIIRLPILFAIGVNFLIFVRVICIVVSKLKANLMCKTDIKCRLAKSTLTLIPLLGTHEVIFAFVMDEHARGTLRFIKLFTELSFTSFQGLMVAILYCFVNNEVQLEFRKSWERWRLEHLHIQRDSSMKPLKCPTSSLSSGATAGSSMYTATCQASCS

| Compound | IC50 [1, 3] [nM] | IC50 [1, 4] [nM] | EC50 [2, 5] [nM] | EC50 [2, 6] [nM] | EC50/pM (ratio 1% HSA/0% HSA) [2] | IC50 ([1]; 0.001% HSA (low albumin), read-out: Receptor binding affinity IC50 (low HSA)) [nM] | IC50 (high HSA) ([1]; Receptor binding affinity IC50 (high HSA), 2.0% HSA (high albumin), heading: Receptor binding affinity IC50) [nM] | EC50 ([2]; 0% HSA, read-out: In vitro potency (CRE luciferase) EC50 (0% HSA)) [nM] |
| --- | --- | --- | --- | --- | --- | --- | --- | --- |
| CC[C@H](C)[C@H](NC(=O)[C@H](Cc1ccccc1)NC(=O)[C@H](CCC(=O)O)NC(=O)[C@H](CCCCNC(=O)[C@@H](N)CCCCNC(=O)COCCOCCNC(=O)COCCOCCNC(=O)CC[C@H](NC(=O)CCCCCCCCCOc1ccc(C(=O)O)cc1)C(=O)O)NC(=O)[C@H](C)NC(=O)[C@H](C)NC(=O)[C@H](CCC(N)=O)NC(=O)[C@H](CCC(=O)O)NC(=O)[C@H](CCC(=O)O)NC(=O)[C@H](CC(C)C)NC(=O)[C@H](Cc1ccc(O)cc1)NC(=O)[C@H](CO)NC(=O)[C@H](CO)NC(=O)[C@@H](NC(=O)[C@H](CC(=O)O)NC(=O)[C@H](CO)NC(=O)[C@@H](NC(=O)[C@H](Cc1ccccc1)NC(=O)[C@@H](NC(=O)CNC(=O)[C@H](CCC(=O)O)NC(=O)C(C)(C)NC(=O)[C@@H](N)Cc1c[nH]cn1)[C@@H](C)O)[C@@H](C)O)C(C)C)C(=O)N[C@@H](C)C(=O)N[C@@H](Cc1c[nH]c2ccccc12)C(=O)N[C@@H](CC(C)C)C(=O)N[C@H](C(=O)N[C@@H](CCC(N)=O)C(=O)NCC(=O)N[C@@H](CCCNC(=N)N)C(=O)N[C@@H](CCCCNC(=O)[C@@H](N)CCCCNC(=O)COCCOCCNC(=O)COCCOCCNC(=O)CC[C@H](NC(=O)CCCCCCCCCOc1ccc(C(=O)O)cc1)C(=O)O)C(=O)O)C(C)C [Example 18] (H-H[Aib]EGTFTSDVSSYLEEQAAK([εLys-AEEA-AEEA-γGlu-Decanoyl(10-(4-HOOC-PhO))])EFIAWLVQGRK([εLys-AEEA-AEEA-γGlu-Decanoyl(10-(4-HOOC-PhO))])-OH; N-terminus and C-terminus assumed) | 159 | 0.99 | 0.012 | 0.079 | 6.9 | – | – | – |
| CC[C@H](C)[C@H](NC(=O)[C@H](Cc1ccccc1)NC(=O)[C@H](CCC(=O)O)NC(=O)[C@H](CCCCNC(=O)[C@@H](N)CCCCNC(=O)[C@@H](N)CCCCNC(=O)CC[C@H](NC(=O)CC[C@H](NC(=O)CCCCCCCCCCCOc1ccc(C(=O)O)cc1)C(=O)O)C(=O)O)NC(=O)[C@H](C)NC(=O)[C@H](C)NC(=O)[C@H](CCC(N)=O)NC(=O)CNC(=O)[C@H](CCC(=O)O)NC(=O)[C@H](CC(C)C)NC(=O)[C@H](Cc1ccc(O)cc1)NC(=O)[C@H](CO)NC(=O)[C@H](CO)NC(=O)[C@@H](NC(=O)[C@H](CC(=O)O)NC(=O)[C@H](CO)NC(=O)[C@@H](NC(=O)[C@H](Cc1ccccc1)NC(=O)[C@@H](NC(=O)CNC(=O)[C@H](CCC(=O)O)NC(=O)C(C)(C)NC(=O)[C@@H](N)Cc1c[nH]cn1)[C@@H](C)O)[C@@H](C)O)C(C)C)C(=O)N[C@@H](C)C(=O)N[C@@H](Cc1c[nH]c2ccccc12)C(=O)N[C@@H](CC(C)C)C(=O)N[C@H](C(=O)N[C@@H](CCCNC(=N)N)C(=O)NCC(=O)N[C@@H](CCCNC(=N)N)C(=O)N[C@@H](CCCCNC(=O)[C@@H](N)CCCCNC(=O)[C@@H](N)CCCCNC(=O)CC[C@H](NC(=O)CC[C@H](NC(=O)CCCCCCCCCCCOc1ccc(C(=O)O)cc1)C(=O)O)C(=O)O)C(=O)O)C(C)C [Example 16, N^ε26-[(2S)-2-amino-6-[[(2S)-2-amino-6-[[(4S)-4-carboxy-4-[[(4S)-4-carboxy-4-[12-(4-carboxyphenoxy)dodecanoylamino]butanoyl]amino]butanoyl]amino]hexanoyl]amino]hexanoyl], N^ε37-[(2S)-2-amino-6-[[(2S)-2-amino-6-[[(4S)-4-carboxy-4-[[(4S)-4-carboxy-4-[12-(4-carboxyphenoxy)dodecanoylamino]butanoyl]amino]butanoyl]amino]hexanoyl]amino]hexanoyl]-[Aib^8,Arg^34,Lys^37]-GLP-1-(7-37)-peptide] | 199 | 0.24 | 0.0033 | 0.047 | 14 | – | – | – |
| CC[C@H](C)[C@H](NC(=O)[C@H](Cc1ccccc1)NC(=O)[C@H](CCC(=O)O)NC(=O)[C@H](CCCCNC(=O)[C@@H](N)CCCCNC(=O)[C@@H](N)CCCCNC(=O)CC[C@H](NC(=O)CC[C@H](NC(=O)CCCCCCCCCCCCCCC(=O)O)C(=O)O)C(=O)O)NC(=O)[C@H](C)NC(=O)[C@H](C)NC(=O)[C@H](CCC(N)=O)NC(=O)CNC(=O)[C@H](CCC(=O)O)NC(=O)[C@H](CC(C)C)NC(=O)[C@H](Cc1ccc(O)cc1)NC(=O)[C@H](CO)NC(=O)[C@H](CO)NC(=O)[C@@H](NC(=O)[C@H](CC(=O)O)NC(=O)[C@H](CO)NC(=O)[C@@H](NC(=O)[C@H](Cc1ccccc1)NC(=O)[C@@H](NC(=O)CNC(=O)[C@H](CCC(=O)O)NC(=O)C(C)(C)NC(=O)[C@@H](N)Cc1c[nH]cn1)[C@@H](C)O)[C@@H](C)O)C(C)C)C(=O)N[C@@H](C)C(=O)N[C@@H](Cc1c[nH]c2ccccc12)C(=O)N[C@@H](CC(C)C)C(=O)N[C@H](C(=O)N[C@@H](CCCNC(=N)N)C(=O)NCC(=O)N[C@@H](CCCNC(=N)N)C(=O)N[C@@H](CCCCNC(=O)[C@@H](N)CCCCNC(=O)[C@@H](N)CCCCNC(=O)CC[C@H](NC(=O)CC[C@H](NC(=O)CCCCCCCCCCCCCCC(=O)O)C(=O)O)C(=O)O)C(=O)O)C(C)C [Example 12, N^ε26-[(2S)-2-amino-6-[[(2S)-2-amino-6-[[(4S)-4-carboxy-4-[[(4S)-4-carboxy-4-(15-carboxypentadecanoylamino)butanoyl]amino]butanoyl]amino]hexanoyl]amino]hexanoyl], N^ε37-[(2S)-2-amino-6-[[(2S)-2-amino-6-[[(4S)-4-carboxy-4-[[(4S)-4-carboxy-4-(15-carboxypentadecanoylamino)butanoyl]amino]butanoyl]amino]hexanoyl]amino]hexanoyl]-[Aib^8,Arg^34, Lys^37]-GLP-1-(7-37)-peptide] | – | – | – | 1.15 | 194 | 0.33 | 222 | 0.0055 |
| CC[C@H](C)[C@H](NC(=O)[C@H](Cc1ccccc1)NC(=O)[C@H](CCC(=O)O)NC(=O)[C@H](CCCCNC(=O)[C@@H](N)CCCCNC(=O)[C@@H](N)CCCCNC(=O)CC[C@H](NC(=O)CCCCCCCCCOc1ccc(C(=O)O)cc1)C(=O)O)NC(=O)[C@H](C)NC(=O)[C@H](C)NC(=O)[C@H](CCC(N)=O)NC(=O)CNC(=O)[C@H](CCC(=O)O)NC(=O)[C@H](CC(C)C)NC(=O)[C@H](Cc1ccc(O)cc1)NC(=O)[C@H](CO)NC(=O)[C@H](CO)NC(=O)[C@@H](NC(=O)[C@H](CC(=O)O)NC(=O)[C@H](CO)NC(=O)[C@@H](NC(=O)[C@H](Cc1ccccc1)NC(=O)[C@@H](NC(=O)CNC(=O)[C@H](CCC(=O)O)NC(=O)C(C)(C)NC(=O)[C@@H](N)Cc1c[nH]cn1)[C@@H](C)O)[C@@H](C)O)C(C)C)C(=O)N[C@@H](C)C(=O)N[C@@H](Cc1c[nH]c2ccccc12)C(=O)N[C@@H](CC(C)C)C(=O)N[C@H](C(=O)N[C@@H](CCCNC(=N)N)C(=O)NCC(=O)N[C@@H](CCCNC(=N)N)C(=O)N[C@@H](CCCCNC(=O)[C@@H](N)CCCCNC(=O)[C@@H](N)CCCCNC(=O)CC[C@H](NC(=O)CCCCCCCCCOc1ccc(C(=O)O)cc1)C(=O)O)C(=O)O)C(C)C [Example 1, N^ε26-[(2S)-2-amino-6-[[(2S)-2-amino-6-[[(4S)-4-carboxy-4-[10-(4-carboxyphenoxy)decanoylamino]butanoyl]amino]hexanoyl]amino]hexanoyl], N^ε37-[(2S)-2-amino-6-[[(2S)-2-amino-6-[[(4S)-4-carboxy-4-[10-(4-carboxyphenoxy)decanoylamino]butanoyl]amino]hexanoyl]amino]hexanoyl]-[Aib^8, Arg^34,Lys^37]-GLP-1-(7-37)-peptide] | 13 | – | 0.004 | 0.057 | – | – | – | – |
